# Experimental data reported in patent US20190282673A1, “STAPHTAME ACTIVITY ON BIOFILMS” (priority 2016, published 2019).
# Where two headings read alike, the source gives them in different places.
# Key:
# S. aureus = assay: MIC and checkerboard synergy (broth microdilution) on planktonic cells; format: cell-based, Staphylococcus aureus; conditions: for MIC: Staphylococcus aureus, read-out: MIC (drug alone)
# Procedure: MIC was determined using a modified Clinical and Laboratory Standards Institute (CLSI) broth microdilution procedure described earlier in Vipra, et al. (2012) “Antistaphylococcal activity of bacteriophage derived chimeric protein P128” BMC Microbiol. 12:41-50; and Clinical and Laboratory Standards Institute (2012) “Methods for Dilution Antimicrobial Susceptibility Tests for Bacteria That Grow Aerobically; Approved Standard” CLSI document M07-A9.9 ed. Wayne, Pa. USA. In order to determine effects of combinations of P128 with antibiotics, combinations of various dilutions of P128 and a second drug were tested for growth inhibition using a microdilution checkerboard technique. See Lu, et al. (2013) “In vitro activity of sodium new houttuyfonate alone and in combination with oxacillin or netilmicin against methicillin-resistant Staphylococcus aureus” PLoS One 8:e68053. Briefly, S. aureus culture at a final cell number of 5×10^5 CFU/mL was added to wells of 96-well microtiter plates (precoated with 0.5% BSA), containing two-fold dilutions of P128 and the second drug in cation adjusted Mueller Hinton Broth (CAMHB). The plates were incubated at 37° C. for 24 h and the individual MICs and the combination MICs were read. The fractional inhibitory concentration index (FICI) was determined using the following equation: FICI=(MIC of drug A in the combination/MIC of drug A alone)+(MIC of drug B in the combination/MIC of drug B alone). The combination was considered to be synergistic when the FICI was ≤0.5; additive when FICI was 0.5-1.0; indifferent when FICI was 1-4 and antagonistic when FICI≥4. The experiments were performed in triplicate and repeated twice.
# In order to find out whether P128 can act in a synergistic manner with commonly used antibiotics, MIC based growth inhibition assays were performed. MIC based synergy was studied by checkerboard method by determining the FIC index using the method of Lu, et at (2013) “In vitro activity of sodium new houttuyfonate alone and in combination with oxacillin or netilmicin against methicillin-resistant Staphylococcus aureus” PLoS One 8:e68053. […] Similarly.
# (§1) Bacterial cultures at a final cell number of 5×10^5 CFU/mL was added to wells of 96-well microtiter plates (precoated with 0.5% BSA), containing two-fold dilutions of P128 and the second drug in cation adjusted Mueller Hinton Broth (CAMHB). The plates were incubated at 37° C. for 24 h and the individual MICs and the combination MICs were read. The fractional inhibitory concentration index (FICI) was determined using the following equation: FICI=(MIC of drug A in the combination/MIC of drug A alone)+(MIC of drug B in the combination/MIC of drug B alone). The combination was considered to be synergistic when the FICI was ≤0.5; additive when FICI was 0.5-1.0; indifferent when FICI was 1-4 and antagonistic when FICI≥4.
# S. aureus biofilms = assay: MBIC and checkerboard synergy on preformed biofilm (MTT assay); format: cell-based, Staphylococcus aureus
# Procedure: […] LB supplemented with 50 μg/mL CaCl2 was used for daptomycin treatment wells. The contents of the well was aspirated out and discarded. The biofilm adhered to the wells was quantified by MTT assay as described above. The MBIC was defined as the minimum concentration of P128 or the drug showing no colour development. […] In each experiment, in addition to the combination MBIC, the MBIC of each drug was also determined individually. The fractional MBIC concentrations were determined by MTT dye method as described above. The FICI and synergy was also calculated in a similar manner.
# The ability of P128 to inhibit growth of S. aureus in a preformed biofilm was measured by determining minimum biofilm inhibition concentration (MBIC), defined as minimum concentration showing growth inhibition in a MTT based assay. […] 11:226.
# The assay was optimized using the standard S. aureus strain ATCC 29213. An overnight-grown culture of the strain was diluted 1:40 in LB broth 200 μL of diluted culture was aliquoted into microtiter plate wells. Microplates were placed in a shaker-incubator set to 37° C., and 100 rpm for 24 h followed by 48 h incubation under static conditions at 37° C. The contents of one set of four wells were aspirated and discarded. Wells were washed twice with 1×PBS and the presence of biofilm in the wells at the end of this 72-hour period was determined by metabolic dye-reduction assay method using MTT (3-(4, 5-dimethylthiazol-5-diphenyltetrazolium bromide; Himedia). In this assay, live cells reduce the dye leading to color formation which can be read at 570 nm, and the intensity of color can be correlated to number of live cells. 100 μL of PBS was added to the wells along with 10 μL of MTT solution. The plate was incubated for 2 h in the dark. After this, 110 μL of solvent solution solubilizing agent was added and the plate was incubated for 15 minutes at ambient temperature with gentle agitation. The absorbance was read at 570 nm in a microplate reader. Another set of four wells was processed for harvesting the biofilm and determination of CFUs present by plating on solid media. For biofilm inhibitory studies, the wells were washed twice with 1×PBS and challenged with various concentrations of P128 or other antibiotic drugs and incubated for 24 h at 37° C. The contents of the well was aspirated out and discarded. The biofilm adhered to the wells was quantified by MTT assay as described above. The MBIC was defined as the minimum concentration of P128 or the drug showing no colour development. […] In each experiment, in addition to the combination MBIC, the MBIC of each drug was also determined individually. The fractional MBIC concentrations were determined by MTT dye method as described above. The FICI and synergy was also calculated in a similar manner.
# In order to determine whether P128 could synergize with known anti-Staphylococcus drugs to inhibit S. aureus in biofilms. […] The assays were performed in a 96 well checkerboard format using various concentrations of P128 and one of the antibiotics.
# S. aureus BK1 biofilms = assay: Scanning electron microscopy of treated biofilms in microtitre plates; format: cell-based, Staphylococcus aureus; conditions: Gentamycin 50 μg/mL; P128 12.5 μg/mL (lowest concentration tested)
# Procedure: MRSA strain BK1 or MW2 was used for studying biofilm eradication activity of P128 by SEM. For this, biofilms formed in microtitre plates or on the surface of catheters were treated with increasing concentrations of P128 or antibiotics and subjected to SEM. S. aureus BK1 or MW2 was revived on blood agar plates and the culture was grown overnight in TSB supplemented with 20% glucose. The overnight-grown culture was diluted 1:50 in TSB with 2% glucose to achieve OD600=˜0.1. 200 μL of the diluted culture was aliquoted into each well of the 96 well plate and incubated at 37° C. under static conditions for 18 h. After incubation the contents were aspirated, washed twice with 200 μL of PBS, and 100 μL of media+100 μL of drug were added to each well and incubated again at 37° C. for 18 h. The contents were aspirated, washed with 200 μL of PBS and allowed to dry at 37° C. for 15 min. The individual wells were cut out and biofilms visualized by SEM.
# S. epidermidis = assay: MIC and checkerboard synergy (broth microdilution) on planktonic cells; format: cell-based, Staphylococcus epidermidis; conditions: for MIC: Staphylococcus epidermidis
# Procedure: as §1
# S. epidermidis culture at a final cell number of 5×10^5 CFU/mL was added to wells of 96-well microtiter plates (precoated with 0.5% BSA), containing two-fold dilutions of P128 and either Daptomycin or Oxacillin in cation adjusted Mueller Hinton Broth (CAMHB). CAMHB was supplemented with 50 µg/mL Ca^++ for daptomycin assay. The plates were incubated at 37° C. for 24 h and the individual MICs and the combination MICs were read. The fractional inhibitory concentration index (FICI) was determined using the following equation: FICI=(MIC of drug A in the combination/MIC of drug A alone)+(MIC of drug B in the combination/MIC of drug B alone). The combination was considered to be synergistic when the FICI was ≤0.5; additive when FICI was between 0.5-1.0; indifferent when FICI was between 1-4 and antagonistic when FICI was ≥4. The experiments were performed in triplicate and repeated twice.
# [1] = Table 4, S. aureus ATCC 29213 preformed biofilm, 6 h
# [2] = Table 4, S. aureus ATCC 29213 preformed biofilm, 24 h
# [3] = Table 4, S. aureus B9241 preformed biofilm, 6 h
# [4] = Table 4, S. aureus B9241 preformed biofilm, 24 h
# [5] = Table 4, S. aureus BK1 preformed biofilm, 6 h
# [6] = Table 4, S. aureus BK1 preformed biofilm, 24 h
compound,measurement,setting,value
gentamycin [reference compound],MIC (drug alone),S. aureus; S. aureus ATCC 29213 (MSSA),0.4 µg/mL
same,MIC (drug alone),S. aureus; S. aureus B9241 (gentamycin and ciprofloxacin resistant),62 µg/mL
same,MIC (drug alone),"S. aureus; S. aureus BK1 (MRSA, ciprofloxacin resistant)",0.4 µg/mL
same,MIC on resistant strains,"S. aureus; planktonic S. aureus, strains resistant to the drug",62 µg/mL
same,MIC on sensitive strains,"S. aureus; planktonic S. aureus, strains sensitive to the drug",0.4 µg/mL
same,MBIC (individual),S. aureus biofilms; [1],>1000 µg/mL
same,MBIC (individual),S. aureus biofilms; [2],>1000 µg/mL
same,MBIC (individual),S. aureus biofilms; [3],>1000 µg/mL
same,MBIC (individual),S. aureus biofilms; [4],>1000 µg/mL
same,MBIC (individual),S. aureus biofilms; [5],>1000 µg/mL
same,MBIC (individual),S. aureus biofilms; [6],>1000 µg/mL
same,Reduction in MBIC in combination with P128,S. aureus biofilms; gentamycin sensitive strains ATCC29213 and BK1,> 250 fold
same,Effect on biofilm by SEM,S. aureus BK1 biofilms,did not have any appreciable effect
"Cc1nnc(SCC2=C(C(=O)O)N3C(=O)[C@@H](NC(=O)Cn4cnnn4)[C@H]3SC2)s1 [Cephazolin, cephazolin]",MIC (drug alone),S. aureus; S. aureus COL (MRSA),>10 µg/mL
same,MIC (drug alone),S. aureus; S. aureus MW2 (MRSA),5 µg/mL
same,MIC (drug alone),S. aureus; S. aureus USA 300 (MRSA),>10 µg/mL
CN(C)c1cc(NC(=O)CNC(C)(C)C)c(O)c2c1C[C@H]1C[C@H]3[C@H](N(C)C)C(O)=C(C(N)=O)C(=O)[C@@]3(O)C(O)=C1C2=O [Tigecycline],MIC,"S. aureus; 24 h, S. aureus BK18",4 µg/mL
"Cc1onc(-c2ccccc2)c1C(=O)N[C@@H]1C(=O)N2[C@@H]1SC(C)(C)[C@@H]2C(=O)O [Oxacillin, oxacillin]",MIC,"S. aureus; MRSA / USA300, 24 h, S. aureus USA 300 (MRSA)",> 16 µg/mL
same,MIC,"S. aureus; MRSA, 24 h, MRSA strain BK22",> 16 µg/mL
same,MIC,"S. aureus; MRSA, 24 h, S. aureus COL (MRSA)",> 16 µg/mL
same,MIC,"S. aureus; MRSA, 24 h, S. aureus MW2 (MRSA)",> 16 µg/mL
same,MIC (drug alone),S. epidermidis; S. epidermidis B9470,16 µg/mL
same,MIC (drug alone),S. epidermidis; S. epidermidis B9471,16 µg/mL
same,MIC,"S. epidermidis; S. epidermidis B9467, read-out: MIC (drug alone)",8 µg/mL
same,MIC,"S. epidermidis; S. epidermidis B9468, read-out: MIC (drug alone)",0.12 µg/mL
same,MIC,"S. epidermidis; S. epidermidis B9470, read-out: MIC (drug alone)",> 8 µg/mL
same,MIC,"S. epidermidis; S. epidermidis B9471, read-out: MIC (drug alone)",> 8 µg/mL
same,MIC,"S. epidermidis; S. epidermidis B9472, read-out: MIC (drug alone)",16 µg/mL
same,MIC,"S. epidermidis; S. epidermidis B9473, read-out: MIC (drug alone)",16 µg/mL
same,MIC,"S. epidermidis; S. epidermidis, read-out: MIC on resistant strains",0.12 µg/mL
same,MIC,"S. epidermidis; S. epidermidis, read-out: MIC on the sensitive strains",16 µg/mL
"O=C(O)c1cn(C2CC2)c2cc(N3CCNCC3)c(F)cc2c1=O [Ciprofloxacin, ciprofloxacin, reference compound]",MBIC (individual),S. aureus biofilms; [1],>250 µg/mL
same,MBIC (individual),S. aureus biofilms; [2],6.5 µg/mL
same,MBIC (individual),S. aureus biofilms; [3],>250 µg/mL
same,MBIC (individual),S. aureus biofilms; [4],250 µg/mL
same,MBIC (individual),S. aureus biofilms; [5],>250 µg/mL
same,MBIC (individual),S. aureus biofilms; [6],>250 µg/mL
"CC[C@H]1OC(=O)[C@H](C)[C@@H](O[C@H]2C[C@@](C)(OC)[C@@H](O)[C@H](C)O2)[C@H](C)[C@@H](O[C@@H]2O[C@H](C)C[C@H](N(C)C)[C@H]2O)[C@](C)(O)C[C@@H](C)CN(C)[C@H](C)[C@@H](O)[C@]1(C)O [Azithromycin, azithromycin]",MIC,"S. aureus; 24 h, S. aureus BK18",2 µg/mL
